Assay results taken from patent US10130611B2, “Use of benzo-heterocycle derivatives for preventing and treating cancer or for inhibiting cancer metastasis” (MEDICINAL BIOCONVERGENCE RESEARCH CENTER, priority 2009, dated 2018).
pKd: −log10 of the molar value. “Also recorded” adds a separate entry of the source.

How the values were obtained:
[1] = tested on: Mouse mammary carcinoma 4T-1 cells; assay: In vivo cancer metastasis experiment; set-up: species or system Balb/c mice; conditions: mice, 30 mg/kg once a day for 3 weeks
Description: On MMP2 activity (FIG. 37) and cell migration (FIGS. 38 and 39), KL1-dose-dependent effect was measured. For the test on the cell migration, the cells were treated with KL1 for 8 hours. In FIG. 40, in order to see the effect of KL1 on protein synthesis of cells, A549 cells were treated with KL1 at indicated concentrations, and starved in methionine-free medium. Then, [^35S] methionine was added thereto for 2 hours. Then, the cells were incubated in complete medium for 4 hours, and the level of added methionine was measured by a scintillation counter. In FIG. 41, KL1-dose-dependent cytotoxicity was measured by using A549 cells. In FIG. 42, the effect of KL1 on cancer metastasis was measured according to the method as described above. In each group, 6 mice were included, and KL1 was abdominally injected for 3 weeks, in a dose of 30 mg/kg once a day. Then, the mice were sacrificed. The metastasized tumor nodules over 1 mm in diameter were counted, and their average was calculated (left). […]
Mouse mammary carcinoma 4T-1 cells were transfected with si-KRS, si-DRS or si-control, and incubated for 24 hours. […] The growth of a tumor was monitored by measuring a tumor size three times per week. The whole body weights were also simultaneously measured. […] The number and size of metastatic tumor nodules in lungs were measured, and tumor nodules of larger than 1 mm in diameter were separately recorded. […]

[2] = molecular target: T1, GST-KRS (Homo sapiens, UniProt Q15046); assay: Surface plasmon resonance assay (BIAcore3000); conditions: GST-KRS immobilized on CM5 chip, binding to GST subtracted, 25° C., 1:1 binding
T1 construct: made in house; host or cells: E. coli Rosetta (DE3)
T1 sequence (Q15046 whole entry): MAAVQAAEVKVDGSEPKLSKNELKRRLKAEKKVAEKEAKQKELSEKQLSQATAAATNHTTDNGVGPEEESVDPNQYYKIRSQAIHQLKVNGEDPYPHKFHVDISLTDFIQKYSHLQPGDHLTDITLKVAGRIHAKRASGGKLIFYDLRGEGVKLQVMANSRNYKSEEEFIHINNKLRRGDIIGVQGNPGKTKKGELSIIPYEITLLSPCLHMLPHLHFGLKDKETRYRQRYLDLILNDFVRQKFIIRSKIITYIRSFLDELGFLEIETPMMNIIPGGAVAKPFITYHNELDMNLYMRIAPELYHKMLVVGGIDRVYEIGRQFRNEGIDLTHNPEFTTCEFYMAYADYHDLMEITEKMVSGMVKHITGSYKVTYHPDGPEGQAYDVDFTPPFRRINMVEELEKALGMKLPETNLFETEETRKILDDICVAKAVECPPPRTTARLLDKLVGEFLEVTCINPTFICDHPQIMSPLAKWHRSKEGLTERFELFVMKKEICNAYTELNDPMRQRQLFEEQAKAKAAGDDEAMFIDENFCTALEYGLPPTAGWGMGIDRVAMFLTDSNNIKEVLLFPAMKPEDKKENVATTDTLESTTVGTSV
Description: As a control, an OD level of cells treated with DMSO was measured. FIG. 32 is a photograph showing cell growth in wells containing yeast cells having indicated interaction pairs in the presence or absence of CAND-KL1. In FIG. 33, in 293 cells, through co-immunoprecipitation, the KL1-dose-dependent effect on the interaction between KRS and 67LR was tested. The cells were treated with KL1 for 3 hours, 67LR was immunoprecipitated, and co-precipitation of KRS was determined by western blotting. In FIG. 34, in the presence of KL1 in indicated levels, a laminin receptor labeled with radioisotope was mixed with GST-KRS (1 μg). GST-KRS was precipitated with glutathione-Sepharose beads, and co-precipitated laminin receptor was detected with autoradiography. In FIG. 35, in A549 cells, the effect of KL1 on the intracellular level of 67LR and 37LRP was tested with western blotting. […] GST-KRS was immobilized on a CM5 Sensor Chip, and the binding was measured by a resonance unit (RU) at indicated concentrations (indicated by different colors). […]
The interaction between KRS and the compound (Formula 15) was tested by BIAcore3000 (GE healthcare). […] Then, the binding was measured by a change in a resonance unit (RU). The specific binding activity of CAND-KL1 to GST-KRS was measured by subtracting binding to GST in sensorgram. […]

For CCC(C(=O)O)n1/c(=N/C(=O)c2ccc(C)cc2)sc2ccccc21 (stereo not drawn) [Compound of formula 15, 2-[2-(4-Methyl-benzoylimino)-benzothiazol-3-yl]-butyric acid], the “number of metastasized nodules” value ([1]; abdominally injected, lung nodules over 1 mm in diameter) was “significantly reduced”, the “primary tumor growth (weight and size)” value ([1]; KL1 treated vs non-treated group, listed as KL1, 30 mg/kg) was “no significant difference in weight and size; also recorded: did not affect” and the pKd [2] was about 5.59.
